Molecular target: T1, PSII core (Nicotiana tabacum, UniProt P06411+P06413+P69556+P69686)
T1 construct: gene psbA; native PSII core complex, sucrose gradient band of alpha-DDM-solubilised thylakoids; some Lhcb contamination
Experiment: HPLC and absorption-fit pigment analysis of isolated complex
Assay type: binding
Settings: normalised to 37 Chls
Source text: HPLC and absorption-fit pigment analysis of isolated complex on PSII core

Row | β-caro (complex from wild-type plants) [molecules per complex] | Asta and its bypass products (complex from Asta plants (no beta-carotene), count includes by-products of astaxanthin synthesis) [molecules per complex] | SMILES
1 | 3.93 ± 0.08 | – | CC1=C(/C=C/C(C)=C/C=C/C(C)=C/C=C/C=C(C)/C=C/C=C(C)/C=C/C2=C(C)CCCC2(C)C)C(C)(C)CCC1 [β-carotene]
2 | – | 4.12 ± 0.01 | CC1=C(/C=C/C(C)=C/C=C/C(C)=C/C=C/C=C(C)/C=C/C=C(C)/C=C/C2=C(C)C(=O)[C@@H](O)CC2(C)C)C(C)(C)C[C@H](O)C1=O [astaxanthin]

From PMC7609050, “Photosynthesis without β-carotene” (eLife, 2020)
